Consider six compounds from ChEMBL document CHEMBL1201862, “PubChem BioAssay data set” (2004).

Some test systems named below: OVCAR-3; ACHN; Malme-3M; SK-MEL-5; HOP-18; RXF 393; T47D; EKVX; NCI-H23; HOP-62; KM12; SK-OV-3; SF-539; SR; DU-145; OVCAR-4; SNB-19; SN12C; U-251; UACC-62.
Common to all, as to experiment: inhibition of tumour cell growth, NCI panel, 48 h

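Method: 48-hour compound exposure of cells in 96-well plates, five concentrations, linear interpolation of endpoints. Here, GI50 denotes the concentration required for 50% inhibition of growth.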 The source made the active and inactive calls. No stated cut-off is given here; in the data, active = GI50 up to about 1.1 µM and inactive = higher.

As to `CCCN(CCCC(NC(C)=O)C(=O)NCc1ccccc1)C(=O)N(CCCl)N=O` (configuration not stated), the GI50 with OVCAR-3 is 20.9 µM (inactive); in the experiment with ACHN, 3.09 µM (inactive); with Malme-3M it was 22.4 µM (inactive); with SK-MEL-5 it was 21.2 µM (inactive); in the experiment on HOP-18, 22.5 µM (inactive); in the experiment with RXF 393, 17.8 µM (inactive). For the same compound, the GI50 with T47D is > 100 µM (inactive); in the experiment with EKVX it was 31.7 µM (inactive); with NCI-H23, 8.75 µM (inactive); with HOP-62 it was 2.73 µM (inactive); with KM12, 21.1 µM (inactive); in the experiment on SK-OV-3, 25.7 µM (inactive). Also, the GI50 in the experiment with SF-539 is 0.977 µM (active); with SR, 0.564 µM (active); in the experiment with DU-145, > 100 µM (inactive); in the experiment with OVCAR-4, 37.9 µM (inactive); with SNB-19, 5.13 µM (inactive); with SN12C it was 15.8 µM (inactive). Also, the figures for the GI50 in the experiment on U-251 and in the experiment on UACC-62 were 3.53 µM (inactive) and 1.04 µM (active), respectively.
`NC(=O)c1c([N+](=O)[O-])cc(C(F)(F)F)cc1[N+](=O)[O-]`: the GI50 was 24.9 µM (inactive) in the experiment on OVCAR-3; > 100 µM (inactive) in the experiment with ACHN; 24.4 µM (inactive) with Malme-3M; 50 µM (inactive) with SK-MEL-5; > 100 µM (inactive) in the experiment with HOP-18; > 100 µM (inactive) in the experiment on RXF 393. Besides, the GI50 in the experiment on EKVX was > 100 µM (inactive); with NCI-H23, 29.8 µM (inactive); with HOP-62 it was > 100 µM (inactive); in the experiment on KM12 it was 44 µM (inactive); in the experiment on SK-OV-3, > 100 µM (inactive); in the experiment with SF-539, 45.7 µM (inactive). Moreover, the GI50 in the experiment on SR was > 100 µM (inactive); in the experiment on OVCAR-4, 68.2 µM (inactive); in the experiment on SNB-19, > 100 µM (inactive); with SN12C it was 52.4 µM (inactive); with U-251, > 100 µM (inactive); in the experiment with UACC-62, 35.1 µM (inactive).
Take `N/C(=N\O)N/N=C/c1ccc(O)c(O)c1`: the GI50 with OVCAR-3, with ACHN, in the experiment with Malme-3M, in the experiment with SK-MEL-5, in the experiment on HOP-18 and in the experiment with RXF 393 was > 100 µM (inactive) in each case. The GI50 in the experiment with EKVX, in the experiment with NCI-H23, in the experiment with HOP-62, in the experiment with KM12, with SK-OV-3 and with SF-539 was > 100 µM (inactive) throughout. Moreover, the GI50 with SR, in the experiment on OVCAR-4, in the experiment on SNB-19, in the experiment with SN12C, with U-251 and in the experiment with UACC-62 was > 100 µM (inactive) throughout.
For `O=c1[nH]c2ccccc2cc1C(Cl)=C(Cl)Cl`, the GI50 with OVCAR-3 was > 100 µM (inactive); in the experiment with ACHN, > 100 µM (inactive); in the experiment on Malme-3M, > 100 µM (inactive); in the experiment with HOP-18 it was > 100 µM (inactive); with RXF 393, > 100 µM (inactive); with EKVX it was 35.7 µM (inactive). In addition, the GI50 with NCI-H23, with HOP-62, in the experiment with KM12, in the experiment on SK-OV-3, in the experiment on SF-539 and with SR was > 100 µM (inactive) in each case. Besides, the GI50 in the experiment with OVCAR-4, in the experiment on SNB-19, in the experiment on SN12C, in the experiment on U-251 and with UACC-62 was > 100 µM (inactive) throughout.
Take `Cc1ccc(C)c(NC(=O)C(=O)Nn2c(S)nc3ccccc3c2=O)c1`: the GI50 in the experiment on ACHN was > 100 µM (inactive); in the experiment on Malme-3M, > 100 µM (inactive); with SK-MEL-5 it was > 100 µM (inactive); in the experiment with HOP-18, > 100 µM (inactive); in the experiment with RXF 393, > 100 µM (inactive); in the experiment with EKVX, 71.3 µM (inactive). Moreover, the GI50 in the experiment on NCI-H23, in the experiment on HOP-62, in the experiment on KM12, in the experiment with SK-OV-3, in the experiment on SF-539 and in the experiment with SR was > 100 µM (inactive) each time. In addition, the GI50 with OVCAR-4, in the experiment with SNB-19, with SN12C, in the experiment with U-251 and with UACC-62 was > 100 µM (inactive) in each case.
In the case of `CCCCCCCCCCCCCCCC/C(C(=O)OC)=C(/O)C(=O)OCC`, the GI50 was > 100 µM (inactive) with OVCAR-3; 70.5 µM (inactive) in the experiment with ACHN; > 100 µM (inactive) in the experiment with Malme-3M; > 100 µM (inactive) in the experiment with SK-MEL-5; > 100 µM (inactive) with HOP-18; > 100 µM (inactive) with RXF 393. Also, the GI50 with NCI-H23 is > 100 µM (inactive); in the experiment with HOP-62, > 100 µM (inactive); in the experiment with KM12, > 100 µM (inactive); in the experiment with SK-OV-3, > 100 µM (inactive); in the experiment with SF-539, > 100 µM (inactive); in the experiment on SR, 95.3 µM (inactive). In addition, the GI50 in the experiment with OVCAR-4, in the experiment with SNB-19, in the experiment with SN12C, with U-251 and with UACC-62 was > 100 µM (inactive) in each case.
